# Measurements published in patent publication US10555987B2, “GHRH agonists for the treatment of ischemic disorders” (UNIVERSITY OF MIAMI, priority 2012, dated 2020).
# Non-standard residues stand in square brackets, D forms with d. Residues, ends and D or L forms follow the SMILES beside them. *: point of attachment. Desaminotyrosyl = O=C(CCc1ccc(O)cc1)*; Nle = CCCC[C@H](N)C(=O)O; Orn = NCCC[C@H](N)C(=O)O; Abu = CC[C@H](N)C(=O)O; GABA = NCCCC(=O)O
# Key:
# GH release [1] = assay: In vivo endocrine activity, GH release after intravenous administration (Table 8); conditions: rat, i.v. injection
# GH release [2] = assay: In vivo endocrine activity, GH release after subcutaneous administration (Table 9); conditions: rat, subcutaneous (s.c.) injection
# Method: Subcutaneous Administration. Adult male rats were used and anesthetized with pentobarbital (6 mg/100 g, b.w.), by i.p. injection. […] Blood samples were taken from the jugular vein 5, 15 and/or 30 minutes after the injection. The blood samples were centrifuged, plasma was removed and the GH level was measured byELISA. The results are summarized in terms of potency in Table 9.
# GH release [3] = assay: GH releasing potency in vivo, subcutaneous administration (Example 14, Table 12); set-up: species or system rat; conditions: s.c.
# In short: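 Potency is expressed relative to GHRH(1-29)NH2 and JI-38 (each = 1), via equivalent GHRH(1-29)NH2 dose read from a standard curve. Peptides in 5% mannitol given i.v. or s.c. to anaesthetised male Sprague-Dawley rats (200-250 g); serum GH measured by ELISA at selected times.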
# GH release [4] = assay: GH releasing potency in vivo, intravenous administration (Example 14, Table 13); set-up: species or system rat; conditions: i.v.
# Method: Male Sprague-Dawley rats, weighing 200-250 g, were purchased from Charles River Laboratory (Wilmington, Mass.) and used for experiments. All animal procedures were approved by the Veterans Affairs Animal Care and Use Committee and were conducted in accordance with additional institutional guidelines as well. Briefly, groups of 5-6 animals were used in each experiment. The rats were anesthetized with 50 mg/kg of sodium pentobarbital (Nembutal, Lundbeck Inc., Deerfield, Ill.). Twenty min after inducing anesthesia, GHRH(1-29)NH2, JI-38, or new analogs were injected into the animals intravenously (i.v.) or subcutaneously (s.c.). The peptides were dissolved in 0.01 M acetic acid to get 1 μg/μl stock solution, and then diluted with 5% mannitol. Control rats received 5% mannitol only. Blood samples were collected from the jugular vein at selected times and were used for serum preparation. Concentrations of GH in rat sera were determined by ELISA. The relative potencies of tested peptides were calculated using GHRH(1-29)NH2 and JI-38 for comparison, whose potency was defined as 1. The equivalent dosage of GHRH(1-29)NH2 to reach the same level of serum growth hormone release after injection of the specific tested peptide was determined from a GHRH(1-29)NH2 standard curve using Origin 6.0 software. […] Serum GH was determined using the rat Growth Hormone ELISA kit (ALPCO Diagnostics, Mill Valley, Calif.) according to the manufacturer's instruction. Absorbance at 405 nm was measured by a Victor 3 Multi-label Counter (Perkin-Elmer, Waltham, Md.).
# GHRH receptor [5] = target: T1, GHRH receptor (Homo sapiens, UniProt Q02643); assay: Receptor binding in vitro, 125I-labeled [His1,Nle27]-hGHRH(1-32)NH2, membrane receptors of human anterior pituitary cells (Table 14)
# T1 sequence (Q02643 23-423): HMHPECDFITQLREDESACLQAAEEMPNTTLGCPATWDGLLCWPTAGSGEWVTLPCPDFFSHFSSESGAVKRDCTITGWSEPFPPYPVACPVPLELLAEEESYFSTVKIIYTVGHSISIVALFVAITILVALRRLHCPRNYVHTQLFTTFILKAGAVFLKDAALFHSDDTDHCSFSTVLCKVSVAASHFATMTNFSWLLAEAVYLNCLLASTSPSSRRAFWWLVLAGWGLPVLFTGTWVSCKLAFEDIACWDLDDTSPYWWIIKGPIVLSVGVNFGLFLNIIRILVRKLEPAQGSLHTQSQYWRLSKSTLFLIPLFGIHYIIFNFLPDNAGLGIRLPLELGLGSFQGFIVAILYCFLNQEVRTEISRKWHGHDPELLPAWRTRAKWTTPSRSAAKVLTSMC
# Excerpt: Normal human pituitary was purchased from the National Hormone and Peptide Program (UCLA Medical Center, Torrance, Calif.).
# GHRH receptor [6] = target: T1, GHRH receptor; assay: GHRH receptor binding, competition with 125I-labeled JV-1-42, human pituitary membrane homogenates (Table 5); set-up: Normal human pituitaries were purchased from the National Hormone and Peptide Program; tissue National Hormone and Peptide Program (A.F. Parlow, Harbor-UCLA Medical Center, Torrance, Calif.); host or cells: normal human pituitary, membrane fraction
# Method: Normal human pituitaries were purchased from the National Hormone and Peptide Program (A.F. Parlow, Los Angeles, County Harbor-UCLA Medical Center, Torrance, Calif.). Briefly, in competitive binding analysis, ^125I-labeled JV-1-42 ([…]) was displaced by GHRH agonists at 10^−6 to 10^−12 M.
# The final binding affinities were expressed as IC50 values and were calculated by using the LIGAND PC computerized curve-fitting program of Munson and Rodbard as modified by McPherson.
# GHRH receptor [7] = target: T1, GHRH receptor; assay: GHRH receptor binding, competition with 125I-labeled JV-1-42, human pituitary membrane homogenates (Table 7); set-up: Normal human pituitaries were purchased from the National Hormone and Peptide Program; tissue National Hormone and Peptide Program (A.F. Parlow, Harbor-UCLA Medical Center, Torrance, Calif.); host or cells: normal human pituitary, membrane fraction; conditions: JI-38 = 1, Table 7
# Excerpt: Normal human pituitaries were purchased from the National Hormone and Peptide Program (A.F. Parlow, Los Angeles, County Harbor-UCLA Medical Center, Torrance, Calif.).
compound,measurement,setting,value
"CCCC[C@H](NC(=O)[C@@H](NC(=O)[C@H](CC(=O)O)NC(=O)[C@H](CCC(N)=O)NC(=O)[C@H](CC(C)C)NC(=O)[C@H](CC(C)C)NC(=O)[C@H](CCCN)NC(=O)[C@H](CCCNC(=N)N)NC(=O)[C@H](C)NC(=O)[C@H](CO)NC(=O)[C@H](CC(C)C)NC(=O)[C@H](CCC(N)=O)NC(=O)[C@H](CC)NC(=O)[C@H](CC(C)C)NC(=O)[C@@H](NC(=O)[C@H](CCCN)NC(=O)[C@H](CCCNC(=N)N)NC(=O)[C@H](Cc1ccc(O)cc1)NC(=O)[C@H](CO)NC(=O)[C@H](CC(N)=O)NC(=O)[C@@H](NC(=O)[C@H](Cc1ccccc1)NC(=O)[C@@H](NC(=O)[C@H](C)NC(=O)[C@H](CC(=O)O)NC(=O)[C@@H](C)NC(=O)CCc1ccc(O)cc1)[C@@H](C)CC)[C@@H](C)O)C(C)C)[C@@H](C)CC)C(=O)N[C@@H](CO)C(=O)N[C@@H](CCCNC(=N)N)C(=O)N[C@@H](CCC(N)=O)C(=O)NCCCC(N)=O [Peptide P-29702, [Dat^1, D-Ala^2, Orn^12, Abu^15, Orn^21, Nle^27, Gln-Gab^30]hGHRH(1-30)NH2] (Desaminotyrosyl-[dA]DAIFTNSYR[Orn]VL[Abu]QLSAR[Orn]LLQDI[Nle]SRQ[GABA]-NH2)",GH releasing potency in vivo relative to JI-38 (=1),GH release [1]; 5 min after,0.98
same,GH releasing potency in vivo relative to JI-38 (=1),GH release [1]; 15 min after,0.99
same,GH releasing potency in vivo relative to JI-38 (=1),GH release [1]; 30 min after,1.22
same,GH releasing potency relative to JI-38 (=1),GH release [2]; 15 min after,0.53
same,GH releasing potency relative to JI-38 (=1),GH release [2]; 30 min after,0.73
same,"Serum GH level at selected time after injection (ng/ml), 0 min","GH release [3]; male rats, dose 3 μg/kg, 0 min, mean ± SEM",43.7 ± 5^ ng/ml
same,"Serum GH level at selected time after injection (ng/ml), 15 min","GH release [3]; male rats, dose 3 μg/kg, 15 min, mean ± SEM",103.7 ± 23.1 ng/mL
same,"Serum GH level at selected time after injection (ng/ml), 30 min","GH release [3]; male rats, dose 3 μg/kg, 30 min, mean ± SEM",85 ± 27.8 ng/mL
same,"Relative potency compared to GHRH(1-29), 15 min",GH release [3]; 15 min,22.4
same,"Relative potency compared to JI-38, 15 min",GH release [3]; 15 min,0.35
same,"Relative potency compared to GHRH(1-29), 30 min",GH release [3]; 30 min,53.5
same,"Relative potency compared to JI-38, 30 min",GH release [3]; 30 min,0.48
same,"Relative potency, 5 min","GH release [4]; 5 min, JI-38 = 1",1.07
same,"Relative potency, 15 min","GH release [4]; 15 min, JI-38 = 1",1.38
same,"Serum GH level at selected time after injection (ng/ml), 0 min","GH release [4]; dose 1 μg/kg, 0 min, mean ± SEM",47.7 ± 3.4 ng/mL
same,"Serum GH level at selected time after injection (ng/ml), 5 min","GH release [4]; dose 1 μg/kg, 5 min, mean ± SEM",578 ± 87.7 ng/mL
same,"Serum GH level at selected time after injection (ng/ml), 15 min","GH release [4]; dose 1 μg/kg, 15 min, mean ± SEM",273 ± 40.8 ng/mL
same,Relative affinity (Binding potency) compared to JI-38,GHRH receptor [5]; JI-38 = 1,0.83
same,Relative affinity (Binding potency) compared to hGHRH(1-29),GHRH receptor [5]; hGHRH(1-29)NH2 = 1,2.31
same,Relative affinity (Binding potency) vs GHRH,"GHRH receptor [6]; GHRH(1-29) = 1, Table 5",81.2
same,Relative affinity (Binding potency) vs JI-38,"GHRH receptor [6]; JI-38 = 1, Table 5",34.2
same,Relative affinity (Binding potency) vs JI-38,GHRH receptor [7],5.06
